This assay has as its target α-glucosidase. Put plainly: α-glucosidase inhibitor screening kit. Format: biochemical.

Here are results for one compound from article PMC11209911 (ACS Omega, 2024).

Take `C=C/C=C(\C)CC[C@@H]1C[C@@H](O)CC(=O)O1` [30b, (4R,6R)-4-Hydroxy-6-((E)-3-methylhexa-3,5-dien-1-yl)tetrahydro-2H-pyran-2-one]: half-maximal inhibition (IC50) required 66.1 µM.
